In PubChem BioAssay AID2060604 (Molecular Pharmacology Branch, DTP, NCI, 2025):

System: 379773-124-R-J2-PDC complex spheroids, viability % test/control
Experiment: Anticancer human tumor 379773-124-R-J2-PDC patient-derived endometrial carcinoma cell line growth inhibition [CLK]
Settings: for IC50: curve of first compound; for viability, T/C: stronger effect = lower value
Procedure, shortened: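 Patient-derived tumor cells grown as complex spheroids with HUVEC endothelial cells and mesenchymal stem cells, treated with drug combinations. Concentrations descend in half-log steps from near clinical Cmax, or from 10 microM if Cmax unknown.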

[1] = second compound 0.0316 µM, first compound 0.0316 µM
[2] = second compound 0.0316 µM, first compound 0.1 µM
[3] = second compound 0.1 µM, first compound 0.0316 µM
[4] = second compound 0.1 µM, first compound 0.1 µM
[5] = second compound 0.316 µM, first compound 0.0316 µM
[6] = second compound 0.316 µM, first compound 0.1 µM
[7] = second compound 1 µM, first compound 0.0316 µM
[8] = second compound 1 µM, first compound 0.1 µM
[9] = second compound 3.16 µM, first compound 0.0316 µM
[10] = second compound 3.16 µM, first compound 0.1 µM
[11] = second compound 10 µM, first compound 0.0316 µM
[12] = second compound 10 µM, first compound 0.1 µM
[13] = second compound 0.0316 µM, first compound 0.316 µM
[14] = second compound 0.0316 µM, first compound 1 µM
[15] = second compound 0.0316 µM, first compound 3.16 µM
[16] = second compound 0.0316 µM, first compound 10 µM
[17] = second compound 0.1 µM, first compound 0.316 µM
[18] = second compound 0.1 µM, first compound 1 µM
[19] = second compound 0.1 µM, first compound 3.16 µM
[20] = second compound 0.1 µM, first compound 10 µM
[21] = second compound 0.316 µM, first compound 0.316 µM
[22] = second compound 0.316 µM, first compound 1 µM
[23] = second compound 0.316 µM, first compound 3.16 µM
[24] = second compound 0.316 µM, first compound 10 µM
[25] = second compound 1 µM, first compound 0.316 µM
[26] = second compound 1 µM, first compound 1 µM
[27] = second compound 1 µM, first compound 3.16 µM
[28] = second compound 1 µM, first compound 10 µM
[29] = second compound 3.16 µM, first compound 0.316 µM
[30] = second compound 3.16 µM, first compound 1 µM
[31] = second compound 3.16 µM, first compound 3.16 µM
[32] = second compound 3.16 µM, first compound 10 µM
[33] = second compound 10 µM, first compound 0.316 µM
[34] = second compound 10 µM, first compound 1 µM
[35] = second compound 10 µM, first compound 3.16 µM
[36] = second compound 10 µM, first compound 10 µM
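Note: compound exposure lasted seven days before the viability readout.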
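Throughout, for viability, T/C: 100% = DMSO vehicle control wells.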

Cn1ncnc1[C@H]1c2n[nH]c(=O)c3cc(F)cc(c23)N[C@@H]1c1ccc(F)cc1 + CNC(=O)c1ccc(Nc2nc(OC3CCCC3)c3c(-c4ccc5nc(C)oc5c4)c[nH]c3n2)c(OC)c1
IC50 (second compound 0.0316 µM): 13.7 nM
IC50 (second compound 0.1 µM): < 0.316 nM
IC50 (second compound 0.316 µM): < 0.316 nM
IC50 (second compound 1 µM): < 0.316 nM
IC50 (second compound 3.16 µM): < 0.316 nM
IC50 (second compound 10 µM): < 0.316 nM
viability, T/C (second compound 0.0316 µM, first compound 0.000316 µM): 71.4%
viability, T/C (second compound 0.0316 µM, first compound 0.001 µM): 64.9%
viability, T/C (second compound 0.0316 µM, first compound 0.00316 µM): 65.7%
viability, T/C (second compound 0.0316 µM, first compound 0.01 µM): 56.2%
viability, T/C [1]: 34.6%
viability, T/C [2]: 14.7%
viability, T/C (second compound 0.1 µM, first compound 0.000316 µM): 41.1%
viability, T/C (second compound 0.1 µM, first compound 0.001 µM): 35.1%
viability, T/C (second compound 0.1 µM, first compound 0.00316 µM): 26.6%
viability, T/C (second compound 0.1 µM, first compound 0.01 µM): 26.9%
viability, T/C [3]: 17.6%
viability, T/C [4]: 13.1%
viability, T/C (second compound 0.316 µM, first compound 0.000316 µM): 39%
viability, T/C (second compound 0.316 µM, first compound 0.001 µM): 38.5%
viability, T/C (second compound 0.316 µM, first compound 0.00316 µM): 32.1%
viability, T/C (second compound 0.316 µM, first compound 0.01 µM): 27.2%
viability, T/C [5]: 17.1%
viability, T/C [6]: 8.94%
viability, T/C (second compound 1 µM, first compound 0.000316 µM): 39.4%
viability, T/C (second compound 1 µM, first compound 0.001 µM): 30.3%
viability, T/C (second compound 1 µM, first compound 0.00316 µM): 27.8%
viability, T/C (second compound 1 µM, first compound 0.01 µM): 21.5%
viability, T/C [7]: 14%
viability, T/C [8]: 7.18%
viability, T/C (second compound 3.16 µM, first compound 0.000316 µM): 35.4%
viability, T/C (second compound 3.16 µM, first compound 0.001 µM): 31.1%
viability, T/C (second compound 3.16 µM, first compound 0.00316 µM): 24.1%
viability, T/C (second compound 3.16 µM, first compound 0.01 µM): 25.2%
viability, T/C [9]: 16.6%
viability, T/C [10]: 10.1%
viability, T/C (second compound 10 µM, first compound 0.000316 µM): 25.4%
viability, T/C (second compound 10 µM, first compound 0.001 µM): 30.7%
viability, T/C (second compound 10 µM, first compound 0.00316 µM): 23.5%
viability, T/C (second compound 10 µM, first compound 0.01 µM): 19.1%
viability, T/C [11]: 15.1%
viability, T/C [12]: 9.79%

Nc1ccn(C2OC(CO)C(O)C2(F)F)c(=O)n1 (stereo unspecified) + CNC(=O)c1ccc(Nc2nc(OC3CCCC3)c3c(-c4ccc5nc(C)oc5c4)c[nH]c3n2)c(OC)c1
IC50 (second compound 0.0316 µM): < 31.6 nM
IC50 (second compound 0.1 µM): < 31.6 nM
IC50 (second compound 0.316 µM): < 31.6 nM
IC50 (second compound 1 µM): < 31.6 nM
IC50 (second compound 3.16 µM): < 31.6 nM
IC50 (second compound 10 µM): < 31.6 nM
viability, T/C [1]: 6.55%
viability, T/C [2]: 3.76%
viability, T/C [13]: 4.74%
viability, T/C [14]: 5.45%
viability, T/C [15]: 5.63%
viability, T/C [16]: 3.43%
viability, T/C [3]: 7.18%
viability, T/C [4]: 4.04%
viability, T/C [17]: 4.89%
viability, T/C [18]: 3%
viability, T/C [19]: 4.22%
viability, T/C [20]: 2.03%
viability, T/C [5]: 6.96%
viability, T/C [6]: 5.27%
viability, T/C [21]: 3.29%
viability, T/C [22]: 3.59%
viability, T/C [23]: 3.28%
viability, T/C [24]: 2.14%
viability, T/C [7]: 12.8%
viability, T/C [8]: 6.01%
viability, T/C [25]: 3.29%
viability, T/C [26]: 2.77%
viability, T/C [27]: 3.38%
viability, T/C [28]: 1.2%
viability, T/C [9]: 13.6%
viability, T/C [10]: 6.51%
viability, T/C [29]: 2.77%
viability, T/C [30]: 2.75%
viability, T/C [31]: 2.62%
viability, T/C [32]: 0.99%
viability, T/C [11]: 13.8%
viability, T/C [12]: 8.14%
viability, T/C [33]: 4.09%
viability, T/C [34]: 2.72%
viability, T/C [35]: 3.57%
viability, T/C [36]: 1.76%

O=c1[nH]cc(F)c(=O)[nH]1 + CNC(=O)c1ccc(Nc2nc(OC3CCCC3)c3c(-c4ccc5nc(C)oc5c4)c[nH]c3n2)c(OC)c1
IC50 (second compound 0.0316 µM): > 10000 nM
IC50 (second compound 0.1 µM): < 31.6 nM
IC50 (second compound 0.316 µM): < 31.6 nM
IC50 (second compound 1 µM): < 31.6 nM
IC50 (second compound 3.16 µM): < 31.6 nM
IC50 (second compound 10 µM): < 31.6 nM
viability, T/C [1]: 86.5%
viability, T/C [2]: 76.3%
viability, T/C [13]: 80.7%
viability, T/C [14]: 70.5%
viability, T/C [15]: 70.8%
viability, T/C [16]: 54.5%
viability, T/C [3]: 50.4%
viability, T/C [4]: 35.9%
viability, T/C [17]: 31.5%
viability, T/C [18]: 33.3%
viability, T/C [19]: 29.7%
viability, T/C [20]: 28.2%
viability, T/C [5]: 41%
viability, T/C [6]: 35.2%
viability, T/C [21]: 34.5%
viability, T/C [22]: 33.7%
viability, T/C [23]: 24%
viability, T/C [24]: 18.1%
viability, T/C [7]: 36.9%
viability, T/C [8]: 29.2%
viability, T/C [25]: 30.5%
viability, T/C [26]: 27.2%
viability, T/C [27]: 20.2%
viability, T/C [28]: 10.7%
viability, T/C [9]: 36.1%
viability, T/C [10]: 37.1%
viability, T/C [29]: 34.8%
viability, T/C [30]: 19.3%
viability, T/C [31]: 15.3%
viability, T/C [32]: 9.65%
viability, T/C [11]: 42.5%
viability, T/C [12]: 31.3%
viability, T/C [33]: 28.6%
viability, T/C [34]: 23.5%
viability, T/C [35]: 14.4%
viability, T/C [36]: 9.98%
